Source: publication PMC9321043, “Synthesis, Structure–Activity Relationships, and Parasitological Profiling of Brussonol Derivatives as New Plasmodium falciparum Inhibitors” (Pharmaceuticals, 2022)

How the values were obtained:
[1] = system: P. falciparum (3D7 strain); test: In vitro antiplasmodial activity, P. falciparum blood-stage parasites, SYBR Green I; type: cell-based, Plasmodium falciparum; conditions: Plasmodium falciparum, 3D7, 3D7 strain, Table 2 strain panel; read-out: IC50
Protocol: The P. falciparum strains were cultivated in human blood cells (hRBC) O^+, while P. knowlesi was cultivated in rhesus red blood cells (rRBC) as described. P. falciparum complete RPMI (consisting of RPMI-1640, supplemented with 0.2% NaHCO3, 25 mM HEPES (pH 7.4), 11 mM D-glucose, 10 mg/L hypoxanthine, 25 mg/L gentamicin, and 0.5% (m/v) AlbuMAX II). The parasitemias of these cultures were maintained below 10% with 2.5% hematocrit. P. knowlesi complete RPMI (consisting of RPMI-1640 supplemented with 25 mM HEPES, […] hypoxanthine, 0.26% NaHCO3, 10 mg/L gentamicin, and 1% Albumax II). This culture was maintained with RBCs up to 5% hematocrit. The culture medium was changed daily, and all cultures were maintained under a 90% N2/5% CO2/5% O2 gas mixture at 37 °C. All compounds were purchased from Sigma-Aldrich (Cotia, Brazil).
The antiplasmodial activity of brussonol and derivatives was evaluated against P. falciparum blood parasites 3D7(chloroquine-sensitive). The parasites were synchronized through sterile 5% (m/v) D-sorbitol treatment over 10 min at 37 °C for the enrichment of ring stages. Centrifugation 600× g over 5 min was used to pellet the cultures. The parasitemia was determined by microscope analysis of thin blood smears stained with Giemsa 10% (v/v) after fixation with methanol. The initial parasitemia was calculated for 1000 red blood cells (RBCs), and cultures were diluted to 0.5% parasitemia and 2% hematocrit by the addition of the appropriate volumes of blood and medium. A total of 180 µL aliquots of parasites were distributed into 96-well plates followed by the addition of 20 µL of previously prepared aliquots of ten-fold concentrated compounds, the range of concentrations tested was 10–1.53 µM. Negative and positive control wells, which correspond to non-parasitized erythrocytes and parasite cultures in the absence of compounds, were set in parallel. The DMSO concentration was maintained below 0.05% (v/v) for all compounds except for brussonol, which was 0.5%. The plates were incubated for 72 h at 37 °C in a humidified incubator with a gas mixture of 90% N2, 5% O2, and 5% CO2. Each test was performed in duplicates, and the results were compared with the control cultures. Once completed incubation, the culture medium was removed, and the cells were resuspended in 100 µL PBS (116 mM NaCl, 10 mM NaH2PO4, 3 mM KH2PO4) and lysed with 100 µL lysis buffer (20 mM Tris base, 5 mM EDTA, 0.0008% (v/v) Triton X-100, 0.008% (m/v) saponin, pH 8.0) containing 0.002% (v/v) SYBR Green I. Plates were incubated for 30 min at room temperature, and a SpectraMAX Gemini EM plate reader (Molecular Devices Corp., Sunnyvale, CA) was used to determine the fluorescence corresponding to parasitic density (excitation at 485 nm, emission at 535 nm). The half-maximal inhibitory concentration (IC50^Pf) was determined by non-linear regression analysis of the resulting concentration–response curve using the software GraphPad Prism version 8.0.1 for Windows, GraphPad Software, San Diego, California USA, www.graphpad.com, accessed on 3 March 2022”.

P. falciparum K1 strain = test: Resistance assessment, K1 strain; type: cell-based; conditions: Plasmodium falciparum
P. falciparum Dd2 strain = test: Resistance assessment, Dd2 strain; type: cell-based; conditions: Plasmodium falciparum
[2] = system: P. falciparum TM90C6B strain; test: Resistance assessment, TM90C6B strain; type: cell-based; conditions: Plasmodium falciparum
[3] = system: P. falciparum 3D7^r_MMV848 strain; test: Resistance assessment, 3D7r-MMV848 strain; type: cell-based; conditions: Plasmodium falciparum
P. falciparum = test: Speed-of-action assay; type: cell-based, Plasmodium falciparum; conditions: for speed of action: IC50 compared after 24, 48 and 72 h of drug exposure; for time of parasite death (morphological development, pyknotic nuclei): highest concentration evaluated, Giemsa smears at 0, 24, 48, 72 h
Protocol: The speed-of-action assay assesses the inhibitory activity of the tested compounds after 24, 48, and 72 h of drug exposure. […] Moreover, to confirm the speed-of-action, the morphological development of the parasite in parallel with the IC50 assessment was verified. The parasites in the negative control wells developed according to the expected timeline (Figure 5a). […] Brussonol caused parasite death within the first 24 h of incubation as observed for artesunate (Figure 5a).
In this method, three 96-well plates were prepared by adding 180 µL of the parasite’s inoculum with 0.5% parasitemia and 2% hematocrit. A serial dilution of the compounds was added to each plate; the starting concentration for brussonol was 6× IC50, while for artesunate and pyrimethamine (fast- and slow-acting controls, respectively) were 10× IC50. In addition, a positive and negative control, which corresponded to parasite cultures with no addition of inhibitor and non-parasitized erythrocytes, respectively, were used for the parasite’s control growth. Each plate was treated for a different period (24, 48, or 72 h), and the first two plates were washed twice with fresh medium to remove the inhibitor, followed by incubation of 48 and 24 h, respectively. […] A statistical analysis using a one-way ANOVA test was done to compare each time point using GraphPad Prism version 8.0.1 for Windows, GraphPad Software, San Diego, California USA, www.graphpad.com, accessed on 1 February 2022. In parallel, the morphological development of the parasite under the compounds’ pressure was assessed by adding the compounds tested at the highest concentration evaluated. Blood smears of each well were made and stained at time points 0, 24, 48, and 72 h.

hemozoin formation = test: Hemozoin formation inhibition assay; type: biochemical; conditions: hemin 25 µM, pH 4.8, 4 h, one experiment in triplicate
Protocol: 2. Hemozoin Formation Inhibition Assay
The hemozoin formation inhibition assay was performed as described previously.12 Briefly, serial 1:3 dilutions, in a 96‐well plate, wit h brussonol were made in a final volume of 20 μL in a concentration 10 times higher than the final concentration of the assay. Secondly, 90 μ L of freshly prepared hemin (at a final concentration of 25 μM) solution in 1M NaOAc/HOAc buffer pH 4.8 were added followed by addition of 90 μ L of 5.4 mg/L Tween 20 solution freshly prepared. The plates were let to stand for 4 hours at 37 °C followed by resuspension with multichannel pippete and read at 415 and 630 nm using a SpectraMAX Plus 384 plate reader (Molecular Devices Corp., Sunnyvale, CA).
Due to the absence of enough compound, this experiment wa s performed only once, but with internal triplicate. Chloroquine (CQ) and pyrimethamine (PYR) were used as positive and negative control of inhibition, respectively.
Inhibition (%) = 100 – 100 x [(Aco ntro l – Asample) / (Acontrol - Amin)] Acontrol is the difference of the absorbance at 415 and 630 nm of the negative control (Hemin +, Tween 20 ‐, Compound ‐); Amin is the difference of the absorbance at 415 and 630 nm of the positive control (Hemin +, Tween 20 +, Compound ‐ ); Asample is the difference of the absorbance at 415 and 630 nm of the sample. The hemozoin formation inhibition assay was performed to evaluate if brussonol act inhibiting hemozoin formation in P. falciparum. CQ, which is a well‐known inhibitor of hemozoin […]
Figure S1. Hemozoin formation inhibition assay. Different concentrations of CQ (black triangles), PYR (red squares) and brussonol (blue circles) were incubated with heme in triplicates. Th e absorbance was recorded at 415/630 nm to determine the hemozoin formation inhibition. […]

Structure (SMILES)	IC50 [1] [nM]	IC50 (P. falciparum K1 strain) [nM]	IC50 (P. falciparum Dd2 strain) [nM]	IC50 [2] [nM]	IC50 [3] [nM]	speed of action (P. falciparum)	time of parasite death (morphological development, pyknotic nuclei) (P. falciparum)	hemozoin formation inhibition (in words) (hemozoin formation)
C[C@H]1[C@H](OC(=O)CCC(=O)O)O[C@@H]2O[C@@]3(C)CC[C@H]4[C@H](C)CC[C@@H]1[C@@]24OO3 [artesunate]	8 ± 4	7 ± 3	11 ± 8	6 ± 2	13 ± 8	fast-acting inhibitor	≤ 24 h	
O=C1C(O)=C([C@H]2CC[C@H](c3ccc(Cl)cc3)CC2)C(=O)c2ccccc21 [atovaquone, reference compound]	0.7 ± 0.3			3000 ± 1000				
CCc1nc(N)nc(N)c1-c1ccc(Cl)cc1 [pyrimethamine]	60 ± 10	> 10000	> 10000			slow-acting inhibitor	at the 48 and 72 h time points	no inhibition profile up to 1.4 mM
